Laboratory results reported in patent publication US20030095958A1, “Inhibitors of bace” (priority 2001, published 2003).

Target: BACE (Homo sapiens, UniProt P56817)
Assay: Ki Determination for the Inhibition of BACE (FS-1 peptide fluorescence cleavage assay)
Format: biochemical
Conditions: apparent Ki; 50 nM BACE, 10 μM FS-1 substrate, 0.1M sodium acetate pH 4.5
How it was run: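 Apparent Ki values derive from fitting fluorescence progress data (355 nm excitation, 495 nm emission) of FS-1 peptide cleavage to an integrated competitive tight-binding model. Reactions held 50 nM BACE, 10 μM substrate and inhibitor in 2% DMSO, pH 4.5 acetate buffer, with a 15 min enzyme-compound preincubation at room temperature.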

Sequence of BACE (P56817 46-501): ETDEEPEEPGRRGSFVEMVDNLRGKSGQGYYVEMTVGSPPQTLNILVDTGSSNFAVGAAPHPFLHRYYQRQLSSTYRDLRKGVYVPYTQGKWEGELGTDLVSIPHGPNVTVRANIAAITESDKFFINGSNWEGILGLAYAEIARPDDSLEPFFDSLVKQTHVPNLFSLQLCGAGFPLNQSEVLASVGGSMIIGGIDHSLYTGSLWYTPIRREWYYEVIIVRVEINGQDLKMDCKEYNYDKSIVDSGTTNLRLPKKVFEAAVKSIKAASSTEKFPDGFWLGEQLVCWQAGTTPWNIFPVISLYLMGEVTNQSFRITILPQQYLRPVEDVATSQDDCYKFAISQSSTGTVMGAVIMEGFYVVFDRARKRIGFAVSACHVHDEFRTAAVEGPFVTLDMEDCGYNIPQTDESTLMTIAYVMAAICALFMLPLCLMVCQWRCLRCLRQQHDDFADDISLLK

SMILES	Ki
OCc1cc(C2=CCNCC2)c(COc2ccccc2C(F)(F)F)cc1-c1ccoc1 [Compound 387, [2-Furan-3-yl-5-(1,2,3,6-tetrahydro-pyridin-4-yl)-4-(2-trifluoromethyl-phenoxymethyl)-phenyl]-methanol]	3 to 30 µM
CN1CC=C(c2cc(CO)c(-c3ccoc3)cc2COc2ccccc2C(F)(F)F)CC1 [Compound 388, [2-Furan-3-yl-5-(1-methyl-1,2,3,6-tetrahydro-pyridin-4-yl)-4-(2-trifluoromethyl-phenoxymethyl)-phenyl]-methanol]	3 to 30 µM
O=C(OCc1cc(C2=CCNCC2)c(COc2ccccc2C(F)(F)F)cc1-c1ccoc1)c1ccccn1 [Compound 389, Pyridine-2-carboxylic acid 2-furan-3-yl-5-(1,2,3,6-tetrahydro-pyridin-4-yl)-4-(2-trifluoromethyl-phenoxymethyl)-benzyl ester]	3 to 30 µM
O=C(Nc1ccc2ccccc2c1)NC1CNCCC1c1ccc(-c2ccccc2)cc1 (stereo not shown) [Compound 403]	3 to 30 µM
CC(NC(=O)C1CNCCC1c1ccc(-c2ccccc2)cc1)c1cccc2ccccc12 (stereo not shown) [Compound 404]	3 to 30 µM
CC(NC(=O)C1CNCCC1c1ccc(-c2ccccc2)cc1)c1cccc2ccccc12 (stereo not shown) [Compound 405]	3 to 30 µM
CC(NC(=O)C1CNCCC1c1ccc(-c2ccccc2)cc1)c1cccc2ccccc12 (stereo not shown) [Compound 406]	3 to 30 µM
CC(NC(=O)C1CNCCC1c1ccc(-c2ccccc2)cc1)c1cccc2ccccc12 (stereo not shown) [Compound 407]	3 to 30 µM
OC1CNCC(COc2ccc3ccccc3c2)C1(O)c1ccc(-c2ccccc2)cc1 (stereo not shown) [Compound 412]	3 to 30 µM
COc1ccc2c(c1)c1c(n2C(=O)c2ccc3ccccc3c2)CNCC1 [Compound 502, (6-Methoxy-1,2,3,4-tetrahydro-b-carbolin-9-yl)-naphthalen-2-yl-methanone]	> 30 µM
COc1ccc2c(c1)c1c(n2Cc2ccc3ccccc3c2)CNCC1 [Compound 503, 6-Methoxy-9-naphthalen-2-ylmethyl-2,3,4,9-tetrahydro-1H-b-carboline]	> 30 µM
FC(F)Oc1ccccc1COc1ccc2c(c1)c1c(n2Cc2ccc3ccccc3c2)CNCC1 [Compound 516, 6-(2-Difluoromethoxy-benzyloxy)-9-naphthalen-2-ylmethyl-2,3,4,9-tetrahydro-1H-b-carboline]	< 3 µM
O=C(c1cccc2ccccc12)n1c2c(c3cc(OCc4cc(C(F)(F)F)ccc4C(F)(F)F)ccc31)CCNC2 [Compound 517, [6-(2,5-Bis-trifluoromethyl-benzyloxy)-1,2,3,4-tetrahydro-b-carbolin-9-yl]-naphthalen-1-yl-methanone]	< 3 µM
FC(F)Oc1ccccc1COc1ccc2c(c1)c1c(n2Cc2cccc3ccccc23)CNCC1 [Compound 518, 6-(2-Difluoromethoxy-benzyloxy)-9-naphthalen-1-ylmethyl-2,3,4,9-tetrahydro-1H-b-carboline]	< 3 µM
c1ccc2cc(COc3ccc4c(c3)c3c(n4Cc4ccc5ccccc5c4)CNCC3)ccc2c1 [Compound 519, 6-(Naphthalen-2-ylmethoxy)-9-naphthalen-2-ylmethyl-2,3,4,9-tetrahydro-1H-b-carboline]	< 3 µM
Ic1ccccc1COc1ccc2c(c1)c1c(n2Cc2cccc3ccccc23)CNCC1 [Compound 520, 6-(2-Iodo-benzyloxy)-9-naphthalen-1-ylmethyl-2,3,4,9-tetrahydro-1H-b-carboline]	< 3 µM
Cc1c(COc2ccc3c(c2)c2c(n3Cc3cccc4ccccc34)CNCC2)cccc1C(F)(F)F [Compound 521, 6-(2-Methyl-3-trifluoromethyl-benzyloxy)-9-naphthalen-1-ylmethyl-2,3,4,9-tetrahydro-1H-b-carboline]	< 3 µM
Cc1c(COc2ccc3c(c2)c2c(n3Cc3ccc4ccccc4c3)CNCC2)cccc1C(F)(F)F [Compound 522, 6-(2-Methyl-3-trifluoromethyl-benzyloxy)-9-naphthalen-2-ylmethyl-2,3,4,9-tetrahydro-1H-b-carboline]	< 3 µM
Cc1c(COc2ccc3c(c2)c2c(n3C(=O)c3cccc4ccccc34)CNCC2)cccc1C(F)(F)F [Compound 523, [6-(2-Methyl-3-trifluoromethyl-benzyloxy)-1,2,3,4-tetrahydro-b-carbolin-9-yl]-naphthalen-1-yl-methanone]	< 3 µM
Cc1c(COc2ccc3c(c2)c2c(n3C(=O)c3ccc4ccccc4c3)CNCC2)cccc1C(F)(F)F [Compound 524, [6-(2-Methyl-3-trifluoromethyl-benzyloxy)-1,2,3,4-tetrahydro-b-carbolin-9-yl]-naphthalen-2-yl-methanone]	< 3 µM
COc1cc(COc2ccc3c(c2)c2c(n3Cc3cccc4ccccc34)CNCC2)cc(OC)c1 [Compound 525, 6-(3,5-Dimethoxy-benzyloxy)-9-naphthalen-1-ylmethyl-2,3,4,9-tetrahydro-1H-b-carboline]	< 3 µM

The remaining lines, values ahead:

Ki	SMILES
< 3 µM	O=C(OCc1ccccc1-c1ccc(C2=CCNCC2)c(COc2ccccc2C(F)(F)F)c1)c1cccnc1Cl [Compound 384, 2-Chloro-nicotinic acid 4′-(1,2,3,6-tetrahydro-pyridin-4-yl)-3′-(2-trifluoromethyl-phenoxymethyl)-biphenyl-2-ylmethyl ester]
< 3 µM	O=C(OCc1cc(C2=CCNCC2)c(COc2ccccc2C(F)(F)F)cc1-c1ccoc1)c1cccnc1 [Compound 385, Nicotinic acid 2-furan-3-yl-5-(1,2,3,6-tetrahydro-pyridin-4-yl)-4-(2-trifluoromethyl-phenoxymethyl)-benzyl ester]
< 3 µM	O=C(OCc1cc(C2=CCNCC2)c(COc2ccccc2C(F)(F)F)cc1-c1ccoc1)c1cccnc1Cl [Compound 386, 2-Chloro-nicotinic acid 2-furan-3-yl-5-(1,2,3,6-tetrahydro-pyridin-4-yl)-4-(2-trifluoromethyl-phenoxymethyl)-benzyl ester]
< 3 µM	O=C(OCc1cc(C2=CCNCC2)c(COc2ccccc2C(F)(F)F)cc1-c1ccoc1)c1ccncc1 [Compound 390, Isonicotinic acid 2-furan-3-yl-5-(1,2,3,6-tetrahydro-pyridin-4-yl)-4-(2-trifluoromethyl-phenoxymethyl)-benzyl ester]
< 3 µM	c1ccc(-c2ccc(C3CCNCC3OCc3ccc4ccccc4c3)cc2)cc1 (stereo not shown) [Compound 401]
< 3 µM	O=C(Nc1ccc2ccccc2c1)C1CNCCC1c1ccc(-c2ccccc2)cc1 (stereo not shown) [Compound 402]
< 3 µM	FC(F)(F)c1cccc(COC2CNCC(COc3ccc4ccccc4c3)C2c2ccc(-c3ccccc3)cc2)c1 (stereo not shown) [Compound 413]
< 3 µM	O=C(c1cccc2ccccc12)n1c2c(c3cc(OCc4ccccc4C(F)(F)F)ccc31)CCNC2 [Compound 504, Naphthalen-1-yl-[6-(2-trifluoromethyl-benzyloxy)-1,2,3,4-tetrahydro-b-carbolin-9-yl]-methanone]
< 3 µM	FC(F)(F)c1ccccc1COc1ccc2c(c1)c1c(n2Cc2cccc3ccccc23)CNCC1 [Compound 505, 9-Naphthalen-1-ylmethyl-6-(2-trifluoromethyl-benzyloxy)-2,3,4,9-tetrahydro-1H-b-carboline]
< 3 µM	O=C(c1cccc2ccccc12)n1c2c(c3cc(OCc4ccc(C(F)(F)F)cc4)ccc31)CCNC2 [Compound 506, Naphthalen-1-yl-[6-(4-trifluoromethyl-benzyloxy)-1,2,3,4-tetrahydro-b-carbolin-9-yl]-methanone]
< 3 µM	O=C(c1ccc2ccccc2c1)n1c2c(c3cc(OCc4cccc(C(F)(F)F)c4)ccc31)CCNC2 [Compound 507, Naphthalen-2-yl-[6-(3-trifluoromethyl-benzyloxy)-1,2,3,4-tetrahydro-b-carbolin-9-yl]-methanone]
< 3 µM	O=C(c1cccc2ccccc12)n1c2c(c3cc(OCc4cccc(C(F)(F)F)c4)ccc31)CCNC2 [Compound 508, Naphthalen-1-yl-[6-(3-trifluoromethyl-benzyloxy)-1,2,3,4-tetrahydro-b-carbolin-9-yl]-methanone]
< 3 µM	FC(F)(F)c1cccc(COc2ccc3c(c2)c2c(n3Cc3cccc4ccccc34)CNCC2)c1 [Compound 509, 9-Naphthalen-1-ylmethyl-6-(3-trifluoromethyl-benzyloxy)-2,3,4,9-tetrahydro-1H-b-carboline]
< 3 µM	O=C(c1cccc2ccccc12)n1c2c(c3cc(OCc4cc(C(F)(F)F)ccc4Cl)ccc31)CCNC2 [Compound 510, [6-(2-Chloro-5-trifluoromethyl-benzyloxy)-1,2,3,4-tetrahydro-b-carbolin-9-yl]-naphthalen-1-yl-methanone]
< 3 µM	O=C(c1ccc2ccccc2c1)n1c2c(c3cc(OCc4cc(C(F)(F)F)ccc4Cl)ccc31)CCNC2 [Compound 511, [6-(2-Chloro-5-trifluoromethyl-benzyloxy)-1,2,3,4-tetrahydro-b-carbolin-9-yl]-naphthalen-2-yl-methanone]
< 3 µM	FC(F)Oc1ccc(COc2ccc3c(c2)c2c(n3Cc3cccc4ccccc34)CNCC2)cc1 [Compound 512, 6-(4-Difluoromethoxy-benzyloxy)-9-naphthalen-1-ylmethyl-2,3,4,9-tetrahydro-1H-b-carboline]
< 3 µM	FC(F)Oc1ccc(COc2ccc3c(c2)c2c(n3Cc3ccc4ccccc4c3)CNCC2)cc1 [Compound 513, 6-(4-Difluoromethoxy-benzyloxy)-9-naphthalen-2-ylmethyl-2,3,4,9-tetrahydro-1H-b-carboline]
< 3 µM	O=C(c1cccc2ccccc12)n1c2c(c3cc(OCc4ccc(OC(F)F)cc4)ccc31)CCNC2 [Compound 514, [6-(4-Difluoromethoxy-benzyloxy)-1,2,3,4-tetrahydro-b-carbolin-9-yl]-naphthalen-1-yl-methanone]
< 3 µM	O=C(c1ccc2ccccc2c1)n1c2c(c3cc(OCc4ccc(OC(F)F)cc4)ccc31)CCNC2 [Compound 515, [6-(4-Difluoromethoxy-benzyloxy)-1,2,3,4-tetrahydro-b-carbolin-9-yl]-naphthalen-2-yl-methanone]
